# According to BindingDB's records for patent US20240270732 (Chengdu Biobel Biotechnology Co., 2024):
# Molecular target: T1, Receptor-interacting serine/threonine-protein kinase 1 (Homo sapiens, UniProt Q13546)
# T1 sequence (Q13546 whole entry): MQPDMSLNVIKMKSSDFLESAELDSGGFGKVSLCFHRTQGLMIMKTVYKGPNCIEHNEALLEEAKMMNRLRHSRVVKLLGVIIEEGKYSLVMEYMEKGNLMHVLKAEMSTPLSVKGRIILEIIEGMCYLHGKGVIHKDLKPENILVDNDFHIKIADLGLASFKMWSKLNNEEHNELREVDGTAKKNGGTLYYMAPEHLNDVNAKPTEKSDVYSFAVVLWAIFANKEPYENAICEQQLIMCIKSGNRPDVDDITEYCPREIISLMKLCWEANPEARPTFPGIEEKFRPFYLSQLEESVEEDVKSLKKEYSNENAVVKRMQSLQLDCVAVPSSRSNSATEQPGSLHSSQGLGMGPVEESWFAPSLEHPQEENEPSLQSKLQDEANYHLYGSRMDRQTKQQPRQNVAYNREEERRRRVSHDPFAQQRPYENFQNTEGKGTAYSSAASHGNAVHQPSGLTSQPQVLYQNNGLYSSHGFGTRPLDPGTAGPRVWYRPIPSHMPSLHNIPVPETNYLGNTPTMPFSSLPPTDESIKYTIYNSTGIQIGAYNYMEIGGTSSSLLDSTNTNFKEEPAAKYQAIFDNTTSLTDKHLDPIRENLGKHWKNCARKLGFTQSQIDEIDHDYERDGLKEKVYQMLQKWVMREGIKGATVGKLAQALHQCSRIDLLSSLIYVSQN
# Experiment: Inhibitory Activity Assay
# Summary of the method: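 Compounds were titrated 22-point, 1:1.5 from 2 μM top concentration, in 50 mM Hepes pH 7.5, 50 mM NaCl, 30 mM MgCl2, 1 mM DTT, 0.02% CHAPS, 0.5 mg/mL BSA. After the kinase reaction, ADP-Glo reagent was added for 1 h at room temperature, then detection solution for 30 min, and luminescence was read.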
row,Compound,IC50 [nM]
1,"CN1C(=O)[C@@H](NC(=O)c2ncn(Cc3ccccc3)n2)COc2ccc(CCCN3CCN(CCCc4ccc5c(c4)N(C)C(=O)[C@@H](NC(=O)c4ncn(Cc6ccccc6)n4)CO5)CC3)cc21 [US20240270732, Compound I-121]",4.92
2,"C[C@H]1Oc2ccc(CCCN3CCN(CCCc4ccc5c(c4)N(C)C(=O)[C@@H](NC(=O)c4ncn(Cc6ccccc6)n4)[C@@H](C)O5)CC3)cc2N(C)C(=O)[C@H]1NC(=O)c1ncn(Cc2ccccc2)n1 [US20240270732, Compound I-122]",3.18
3,"CN1C(=O)[C@@H](NC(=O)c2n[nH]c(Cc3ccccc3)n2)COc2ccc(CCCN3CCN(CCCc4ccc5c(c4)N(C)C(=O)[C@@H](NC(=O)c4n[nH]c(Cc6ccccc6)n4)CO5)CC3)cc21 [US20240270732, Compound I-123]",3.17
4,"C[C@H]1Oc2ccc(CCCN3CCN(CCCc4ccc5c(c4)N(C)C(=O)[C@@H](NC(=O)c4n[nH]c(Cc6ccccc6)n4)[C@@H](C)O5)CC3)cc2N(C)C(=O)[C@H]1NC(=O)c1n[nH]c(Cc2ccccc2)n1 [US20240270732, Compound I-124]",4.84
